Experiments:
p42/44 MAPK = experiment: Activation of p42/44 MAPK in goblet cells, Western blot (Example 2); type: cell-based, rat; details: 5 minutes, phospho-MAPK relative to actin
Method: The activation of p42/44 MAPK was examined using Western blot techniques. Goblet cells were serum starved in serum-free RPMI for 4-6 hrs prior to the addition of PMA (100 nM), NGF (1 or 10 nM), or MIM-D3 (10 or 50 μM) for 5 minutes at 37° C. After, cells were rinsed once in cold PBS, scraped in 100 μL of 1×SDS-PAGE sample buffer [62.5 mM Tris-HCl pH 6.8, 10% glycerol, 2% SDS, 5% β-mercaptoethanol, 0.02 mg/mL bromophenol blue] and sonicated for 20 minutes. The homogenates were centrifuged at 14,900 g for 15 min at 4° C. Proteins in a […] of the supernatant were separated by SDS-PAGE (8% acrylamide gels) and transferred to nitrocellulose membranes. The membranes were blocked for 2 hours in 5% non-fat dried milk in buffer containing 20 mM Tris-HCl, pH 8.0, 150 mM NaCl, and 0.01% Tween-20 (TBST). The blots were then probed with an antibody directed against the phosphorylated form of MAPK1/2 (Calbiochem, San Diego, Calif.) at 0.1 μg/mL in TBST containing 5% BSA overnight at 4° C., followed by a 1 hour incubation in HRP-conjugated secondary anti-mouse antibody (Sigma, St. Louis, Mo.) at room temperature in TBST containing 5% non-fat dried milk. Immunoreactive bands were visualized using the enhanced chemiluminescence method (Perkin Elmer, Waltham, Mass.). The blots were stripped at 55° C. for 30 minutes in stripping buffer [62.5 mM Tris-HCl pH 6.8, 2% SDS, 0.1M β-mercaptoethanol] followed by re-probing with an antibody directed against actin (1:5000 dilution, Sigma, St. Louis, Mo.) in TBST containing 5% non-fat dried milk and incubation in HRP-conjugated secondary anti-rabbit antibody. The immunoreactive bands were digitally scanned on an EPSON scanner and analyzed using NIH ImageJ v1.38x. The amount of phosphorylated MAPK in each sample was standardized to the amount of total actin protein in the sample.
To determine if compound D3 and NGF induced glycoconjugates secretion via activation of the MAPK pathway, cultured goblet cells from 3 independent rats were stimulated by 10 and 50 μM compound D3, 1 and 10 nM NGF or PMA (100 nM, the positive control) for 5 minutes and MAPK activity was measured by western blot analysis. A representative western blot from 3 independent rat goblet cell cultures is shown in FIG. 9, and the quantification is shown in FIG. 10. There was a statistically significant effect of treatment on MAPK activation (P<0.0001). Compound D3 increased MAPK activity above basal by 2.5±0.3 fold at 10 μM and 2.2±0.5 fold at 50 μM and NGF increased MAPK activity by 2.8±0.5 at 1 nM (P<0.05) and 1.7±0.2 at 10 nM.

[1] = system: rat conjunctival goblet cells; experiment: Glycoconjugate secretion from rat conjunctival goblet cells, ELLA (Example 1); type: cell-based; details: 2 hours, mean±sem
Method: Cells derived from the explants were grown in RPMI 1640 supplemented with 10% fetal bovine serum (FBS) and penicillin (100 U/mL)/streptomycin (100 μg/mL) at 37° C. in a humidified 5% CO2-atmosphere for seventy-two hours. Contaminating nongoblet cells were removed by scraping them from the plate. During this time, goblet cells migrated from the pieces and began to proliferate. After one week, the goblet cells were trypsinized and plated in twenty-four well culture plates with RPMI-1640 media supplemented with 10% FBS.
To measure glycoconjugate secretion, the conjunctival goblet cells were grown to confluence and were serum deprived for two hours before addition of nerve growth factor (NGF), carbachol (Cch), compound D3, compound 3Aa and compound 3Ak for two hours. Compounds D3, 3Aa and 3Ak were administered at concentrations of 30 μm (micromolar), 10 μM, 1 μM and 0.3 μM. The vehicle used to dissolve the compounds, dimethyl sulfoxide (DMSO) was also included. DMSO was used as the basal control for the 30 μM concentration of compound, which was at 0.1% (v/v). The cholinergic agonist carbachol (Cch), added at 100 μM (micromolar), was a positive control for glycoconjugate secretion. The amount of glycoconjugate secreted into the media was measured by enzyme-linked lectin assay (ELLA). The media were collected and analyzed for amount of the lectin-detectable glycoconjugates, including mucins. The amount of secretion was measured by using the lectin UEA-I which is specific for rat conjunctival goblet cell mucins. Biotinylated UEA-I lectin and alkaline phosphatase-labeled streptavidin were used as described in Rios, J. D., et al., “Role of Neurotrophins and Neurotrophin Receptors in Rat Conjunctival Goblet Cell Secretion and Proliferation, Ophthalmology & Visual Science, 48: 1543-1551 (2007), the entire content of which is incorporated herein by reference. The cells were removed and sonicated, and the cell homogenate was analyzed for the total amount of protein by using the Bradford protein assay. […] Glycoconjugate secretion was expressed as the increase (x-fold) over basal.
Data for CGC glycoconjugate secretion and proliferation were expressed as the increase (x-fold) above basal value, which was standardized to 1.0. For example, for the 0.3 μM (micromolar), 1 μM and 10 μM doses, the CGC glycoconjugate secretion and proliferation were expressed as test compound over untreated cells. For the 30 μM dose, the CGC glycoconjugate secretion and proliferation were expressed as test compound over DMSO untreated cells. Results are expressed as the mean±sem.

[2] = system: Scopolamine Induced Rat Dry Eye Model; experiment: Scopolamine induced rat dry eye model, Schirmer test (Example 5); type: in vivo; details: ± SD
Method: Dry eye was induced using scopolamine hydrobromide (Sigma-Aldrich, St. Louis, Mo.), which was continuously and systemically delivered to the animals via an osmotic pump (2ML4 Alzet®; CedarLane, Burlington, Ontario) filled with scopolamine and implanted subcutaneously in the mid dorsal area between the scapulae. Scopolamine was delivered for a twenty-eight day period at 12.5 mg/day, which translated to 30.0±1.5 mg/kg via osmotic pump.
Treatments for G2-G6 continued daily for seventeen days (up to an including day twenty-one). Thereafter, treatments were terminated but the study continued for another week. During treatment, each animal was anesthetized in an isoflurane chamber. Once asleep, each animal received a 5 μL topical instillation of test article into the lower conjunctival sac of both eyes using a calibrated micropipette. If a clinical endpoint was also being tested, the test article was topically instilled at the end of the testing.
Tear production was monitored using the Schirmer test on days 5, 7, 14, 20 and 29 post induction of dry eye. Tear production was measured with Zone-Quick standardized phenol-red threads (FCI Ophthalmics, Marshfield Hills, Mass.) on animals lightly sedated with Isoflurane. The threads were inserted in the lateral lower canthus and left in place for thirty seconds. The length of the stained moistened portion of the thread was measured in millimeters, using the scale provided with the threads to an accuracy of 1 mm.

Row | Compound | MAPK activity above basal (p42/44 MAPK; 1 nM) [fold] | MAPK activity above basal (p42/44 MAPK; 10 nM) [fold] | CGC glycoconjugate secretion ([1]; NGF, concentration not given) [fold above basal] | Schirmer's Test ([2]; 0.00053% topical 1× daily Days 5-21, Day 5 (test before first instillation)) [mm] | Schirmer's Test ([2]; 0.00053% topical 1× daily Days 5-21, Day 7) [mm] | Schirmer's Test ([2]; 0.00053% topical 1× daily Days 5-21, Day 14) [mm] | Schirmer's Test ([2]; 0.00053% topical 1× daily Days 5-21, Day 29 (after treatment stopped)) [mm] | MAPK activity above basal (p42/44 MAPK; 10 μM) [fold] | MAPK activity above basal (p42/44 MAPK; 50 μM) [fold] | CGC glycoconjugate secretion ([1]; 0.3 μM) [fold above basal] | CGC glycoconjugate secretion ([1]; 1 μM) [fold above basal] | CGC glycoconjugate secretion ([1]; 10 μM) [fold above basal] | CGC glycoconjugate secretion ([1]; 30 μM, over DMSO basal) [fold above basal] | Schirmer's Test ([2]; 1.0% topical 1× daily Days 5-21, Day 20) [mm] | Schirmer's Test ([2]; 2.5% topical 1× daily Days 5-21, Day 7) [mm] | Schirmer's Test ([2]; 2.5% topical 1× daily Days 5-21, Day 14) [mm]
1 | NGF: nerve growth factor (recombinant human), positive control | 2.8±0.5 | 1.7±0.2 | 1.3±0.1 | 9.2 ± 2.5 | 7.8 ± 1.4 | 8.6 ± 2.1 | 7.5 ± 2.5 |  |  |  |  |  |  |  |  | 
2 | NCCCC[C@@H]1NC(=O)[C@H](CCC(=O)O)NC(=O)c2cc([N+](=O)[O-])ccc2OCCC(C(=O)NCC(=O)O)NC1=O (stereo partly shown) [Compound D3] |  |  |  |  |  |  |  | 2.5±0.3 | 2.2±0.5 | 1.3±0.2 | 1.6±0.2 | 1.6±0.3 | 1.7±0.7 | 6.8 ± 0.8 | 9.1 ± 1.9 | 9.4 ± 1.4

Reference: patent US9707267B2, “Beta-turn peptidomimetic cyclic compounds for treating dry eye” (Mimetogen Pharmaceuticals, Inc., priority 2008, dated 2017)
